≈ marks a conversion by molar mass, not a printed value.

For the data set the following is noted: buffer; pH 7.4; 200.0 µM.
`CC(=O)Nc1ccc(/C=C/c2nc3ccccc3o2)cc1` displayed a kinetic solubility of 8.7 µg/mL (≈ 31.3 µM).
The same measure for `Cc1nn(CC(=O)NC2CC2)c(C)c1S(=O)(=O)NC(C)(C)C`: more than 49.3 µg/mL; for `NC(=O)Nc1ccc(C(=O)OCC(=O)Nc2ccc(Cl)cn2)cc1`: 5.1 µg/mL (≈ 14.6 µM); for `O=C(CN1C(=O)NC2(CCCc3ccccc32)C1=O)c1ccc(F)c(F)c1` (stereo not drawn): 17.3 µg/mL (≈ 46.7 µM).
Take `Cc1ccc[n+](CC(=O)Nc2ccc(C)c(C)c2)c1.[Cl-]`: the kinetic solubility was more than 43.6 µg/mL.
`O=c1nc(Nc2ccccc2)oc2ccccc12`: the solubility (kinetic) stood at 26.8 µg/mL (≈ 112 µM).
Turning to `O=C(CNC(=O)c1ccco1)NCc1ccc2c(c1)OCO2`, the kinetic solubility amounted to 34.6 µg/mL (≈ 114 µM). The solubility kinetic values of the last two compounds are within 1.5-fold of each other.
`CC(=O)NC(Cc1ccc(O)cc1)C(=O)NN` (stereo not drawn) registered a kinetic solubility of more than 35.6 µg/mL.
`O=C(CSc1nncs1)NCc1ccc(F)cc1`: the solubility (kinetic) is more than 42.5 µg/mL.
To `CC(Sc1nccn1C)C(=O)Nc1ccc(Cl)cn1` (stereo not drawn) belongs more than 44.5 µg/mL; to `COCCSc1ccccc1C(=O)N1CCc2ccccc21`, 44.5 µg/mL (≈ 142 µM).
`N#Cc1ccc(N=c2ssnc2Cl)cc1` gave a kinetic solubility of 4.2 µg/mL (≈ 16.6 µM).
To `NC(=O)c1ccc(NC(=O)C2CCCC2)cc1` belongs more than 34.8 µg/mL; to `COc1ccc2cc(C(=O)N3CCN(c4ccccc4OC)CC3)[nH]c2c1`, 2.9 µg/mL (≈ 7.94 µM).
The same measure for `CCOC(=O)C1=C(COC(=O)c2ccco2)NC(=O)NC1CC` (stereo not drawn): more than 48.3 µg/mL; for `C/C(Cl)=C\C[N+](C)(C)CC(=O)OCCc1ccccc1.[Br-]`: more than 56.5 µg/mL; for `CN(C)Cc1cc(C(C)(C)C)cc(C(C)(C)C)c1O`: 0.8 µg/mL (≈ 3.04 µM).
With `Cc1cc(C(=O)CCC(=O)NCC(=O)Nc2c(C)cccc2C)c(C)s1`, the solubility (kinetic) is more than 55.9 µg/mL.
In turn, `O=C(Nc1nnc2n1CCS2)c1ccc(Br)o1` had a solubility (kinetic) of more than 47.3 µg/mL.
`CC(C)c1ccc(NC(=O)Cn2c(=O)oc3cccnc32)cc1`: the solubility (kinetic) came out at 7.7 µg/mL (≈ 24.7 µM).
The compound `CC1CCC(NC(=O)CN2C(=O)NC(C)(C)C2=O)CC1` (stereo not drawn) returned a solubility (kinetic) of more than 42.2 µg/mL.
The compound `CC(C)(C)C(=O)NC1CC2CCCC(C1)N2C(=O)Nc1ccccc1F` (stereo not drawn) had a solubility (kinetic) of 6.1 µg/mL (≈ 16.9 µM).
With `COc1cccc(CC(=O)NCC2(N3CCCCC3)CCCCC2)c1`, the kinetic solubility is more than 51.7 µg/mL.
`O=C(O)c1ccc(COc2ccc([N+](=O)[O-])cc2)o1` registered a solubility (kinetic) of more than 39.5 µg/mL.
`O=C(NN1C(=O)NC2(CCCCC2)C1=O)c1cccs1` had a solubility (kinetic) of more than 44 µg/mL.
In turn, `COc1ccc(CNC(C)Cc2cccs2)cc1` (stereo not drawn) had a kinetic solubility of 30.4 µg/mL (≈ 116 µM).
To `O=Cc1ccc(-c2cccc([N+](=O)[O-])c2)o1` belongs 6.3 µg/mL (≈ 29 µM).
`CC(C)=C(NC(=O)c1ccccc1)C(=O)Nc1cccc(C(=O)O)c1` showed a kinetic solubility of more than 50.8 µg/mL.
`CCOC(=O)N1CCN(C(=O)c2cc3cc(Cl)ccc3[nH]2)CC1` had a solubility (kinetic) of 7 µg/mL (≈ 20.8 µM).
The same measure for `Cc1ccccc1NC(=S)NC(=O)Cc1ccc(Cl)cc1`: 0.5 µg/mL (≈ 1.57 µM); for `Cc1ccc(S(=O)(=O)NCCC(=O)NC2CCCCC2)cc1`: more than 48.7 µg/mL.
For the compound `O=C(NCCS(=O)(=O)N1CCCCC1)c1ccccc1`, the kinetic solubility was more than 44.5 µg/mL.
The same measure for `CCC(C)C(NC(N)=O)C(=O)Nc1ccc(C(=O)OC)cc1` (stereo not drawn): more than 46.1 µg/mL; for `O=C(CSc1ccccc1)NCc1ccccc1`: 22.6 µg/mL (≈ 87.8 µM); for `CN(C)S(=O)(=O)c1ccc(NC(=O)CN2CCCCCC2)cc1`: 50.9 µg/mL (≈ 150 µM).
Take `C#CCOn1c(-n2nc(C)cc2C)nc2ccccc2c1=O`: the solubility (kinetic) was more than 44.1 µg/mL.
To `Cc1cc(C)c(C)c(S(=O)(=O)NCCCn2ccnc2)c1C` belongs 39.8 µg/mL (≈ 124 µM).
In turn, `CC(Sc1ccccc1F)C(=O)Nc1cccc(S(=O)(=O)N2CCOCC2)c1` (stereo not drawn) returned a solubility (kinetic) of more than 63.7 µg/mL.
The same measure for `CCCCC1(c2ccc(F)cc2)NC(=O)N(CC(=O)Nc2ccc(N3CCOCC3)cc2)C1=O` (stereo not drawn): 55.7 µg/mL (≈ 119 µM).
As to `N#Cc1ccccc1COC(=O)c1cccnc1N`, the solubility (kinetic) was determined as 10.5 µg/mL (≈ 41.5 µM). Against the preceding compound, the solubility kinetic is about 5.3-fold lower.
To `CCOC(=O)CN1C(=O)S/C(=C/c2ccco2)C1=O` belongs 21.2 µg/mL (≈ 75.4 µM); to `CC(=O)Nc1ccc(S(=O)(=O)Nc2ccc(Cl)cn2)cc1`, 46.3 µg/mL (≈ 142 µM).
Take `CC(NC(=O)c1cc2cc(Cl)ccc2oc1=N)c1ccccc1` (stereo not drawn): the solubility (kinetic) worked out at 4.2 µg/mL (≈ 12.9 µM).
Regarding `O=c1cc(C(F)(F)F)[nH]c2ccccc12`, the solubility (kinetic) was more than 32 µg/mL.
To `CCn1c(O)c(C#N)c(C)cc1=O` belongs more than 26.7 µg/mL; to `Cc1ccccc1NC(=O)CCl`, 26.2 µg/mL (≈ 143 µM).
Compound `CCOC(=O)c1cnc2[nH]c3ccccc3n2c1=O` had a kinetic solubility of 23 µg/mL (≈ 89.4 µM). This solubility kinetic and that of the compound before are within 1.5-fold of each other.
`O=C1CCCN1C(=O)CSc1ncnc2sccc12` yielded a solubility (kinetic) of more than 44 µg/mL.
As to `COc1ccc(C(=O)COC(=O)CNC(=O)c2ccc(C)s2)c(OC)c1`, the solubility (kinetic) was more than 56.6 µg/mL.
The same measure for `COCCN(C(=S)Nc1ccc(C)cc1)C(C)c1ccco1` (stereo not drawn): 3.4 µg/mL (≈ 10.7 µM); for `COc1ccc(N2CCN(CC(=O)c3ccc(Cl)cc3)CC2)cc1`: 45.7 µg/mL (≈ 133 µM); for `CC1(C)CC(=O)C=C(NNC(=O)c2cccnc2)C1`: more than 38.9 µg/mL.
The same measure for `COc1cc(S(=O)(=O)NC2CCCC2)c(OC)cc1C`: 26.5 µg/mL (≈ 88.5 µM).
